Values after ≈ are worked out from the molar mass of the structure shown. Read-outs that look alike come from different tables or passages of the source. Marks after values point to notes of the source that are not given here.
What was measured:
[1] = test system: L. donovani amastigotes; conditions: cited from earlier work; for LdInMac pIC50: supplementary csv, flagged as reported previously in the main tables
[2] = biological target: PI3Kγ (Homo sapiens, UniProt P48736); test: Kinase screen PI3Kγ; type: biochemical
Sequence of PI3Kγ (P48736 whole entry): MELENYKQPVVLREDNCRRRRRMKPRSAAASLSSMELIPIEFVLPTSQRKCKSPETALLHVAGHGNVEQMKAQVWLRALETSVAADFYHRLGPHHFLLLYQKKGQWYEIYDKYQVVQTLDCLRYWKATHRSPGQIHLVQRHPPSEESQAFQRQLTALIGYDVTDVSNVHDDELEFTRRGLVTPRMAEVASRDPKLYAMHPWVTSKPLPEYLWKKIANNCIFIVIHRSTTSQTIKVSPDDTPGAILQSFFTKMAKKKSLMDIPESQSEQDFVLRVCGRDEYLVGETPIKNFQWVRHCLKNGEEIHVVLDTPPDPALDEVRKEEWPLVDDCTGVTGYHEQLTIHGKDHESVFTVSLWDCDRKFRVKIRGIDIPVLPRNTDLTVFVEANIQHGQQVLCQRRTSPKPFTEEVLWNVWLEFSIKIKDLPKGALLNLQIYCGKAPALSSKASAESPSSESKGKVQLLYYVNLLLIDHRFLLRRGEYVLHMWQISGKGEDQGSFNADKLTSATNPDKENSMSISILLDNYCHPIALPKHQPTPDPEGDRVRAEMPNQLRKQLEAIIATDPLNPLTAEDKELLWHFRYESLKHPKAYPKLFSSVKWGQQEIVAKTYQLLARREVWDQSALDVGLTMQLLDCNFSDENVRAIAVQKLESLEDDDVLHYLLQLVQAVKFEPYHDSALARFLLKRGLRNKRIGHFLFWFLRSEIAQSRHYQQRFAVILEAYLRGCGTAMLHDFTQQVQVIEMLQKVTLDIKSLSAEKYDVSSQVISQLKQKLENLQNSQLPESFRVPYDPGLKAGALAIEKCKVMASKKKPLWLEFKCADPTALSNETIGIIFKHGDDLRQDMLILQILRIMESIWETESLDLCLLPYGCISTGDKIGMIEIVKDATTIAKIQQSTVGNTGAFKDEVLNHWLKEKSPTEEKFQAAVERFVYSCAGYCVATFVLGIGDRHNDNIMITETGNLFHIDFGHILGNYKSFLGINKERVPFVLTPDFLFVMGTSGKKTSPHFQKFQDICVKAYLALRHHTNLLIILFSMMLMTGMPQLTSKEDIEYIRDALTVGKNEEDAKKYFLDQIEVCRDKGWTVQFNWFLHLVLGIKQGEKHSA

[3] = biological target: LCK (Homo sapiens, UniProt P06239); test: Kinase screen LCK; type: biochemical
Sequence of LCK (P06239 whole entry): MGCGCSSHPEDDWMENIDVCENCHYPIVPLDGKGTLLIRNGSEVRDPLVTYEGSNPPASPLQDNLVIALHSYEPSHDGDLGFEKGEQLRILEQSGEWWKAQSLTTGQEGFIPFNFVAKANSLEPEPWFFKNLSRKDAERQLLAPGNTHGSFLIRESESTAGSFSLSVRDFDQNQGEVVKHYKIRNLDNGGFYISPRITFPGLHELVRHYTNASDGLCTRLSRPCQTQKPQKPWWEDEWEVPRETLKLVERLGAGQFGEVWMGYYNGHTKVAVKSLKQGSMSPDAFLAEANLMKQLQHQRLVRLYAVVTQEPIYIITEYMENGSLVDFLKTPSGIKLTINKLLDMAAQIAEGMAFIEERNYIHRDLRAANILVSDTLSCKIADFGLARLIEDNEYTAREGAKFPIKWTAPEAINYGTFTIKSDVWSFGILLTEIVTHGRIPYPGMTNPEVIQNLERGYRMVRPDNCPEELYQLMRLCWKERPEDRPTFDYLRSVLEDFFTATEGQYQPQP

[4] = cited from earlier work
[5] = parameters: method as in PMID 30962368; conditions: dosed in rats at 300 mg/kg; cited from earlier work
[6] = test system: THP-1 cells; conditions: cited from earlier work; for THP1 pIC50: supplementary csv, flagged as reported previously in the main tables
[7] = biological target: AuroraB (Homo sapiens, UniProt Q96GD4); test: Kinase screen AuroraB; type: biochemical
Sequence of AuroraB (Q96GD4 whole entry): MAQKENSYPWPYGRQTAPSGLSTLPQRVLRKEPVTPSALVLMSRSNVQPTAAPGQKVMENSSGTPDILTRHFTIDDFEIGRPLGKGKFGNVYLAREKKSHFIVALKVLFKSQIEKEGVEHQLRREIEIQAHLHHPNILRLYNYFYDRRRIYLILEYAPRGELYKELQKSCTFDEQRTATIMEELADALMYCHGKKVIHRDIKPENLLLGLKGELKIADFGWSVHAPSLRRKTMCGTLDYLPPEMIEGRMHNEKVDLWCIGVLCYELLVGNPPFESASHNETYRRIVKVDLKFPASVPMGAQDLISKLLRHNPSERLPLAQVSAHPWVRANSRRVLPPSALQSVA

[8] = Kinetic aqueous solubility by CLND; type: physicochemical
Procedure, shortened: (§1)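 Intramacrophage L. donovani amastigotes in differentiated THP-1 cells, run per an earlier protocol but with 96 h compound exposure instead of 72 h. Aqueous solubility also follows a previously described method.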

[9] = parameters: method as in PMID 30962368; conditions: cited from earlier work
[10] = parameters: method as in PMID 30962368; conditions: after 3 h; cited from earlier work
[11] = test system: infected mouse model of VL; test: Infected mouse model of VL; type: in vivo; conditions: 50 mg/kg ip, b.i.d for 5 days
Protocol: In vivo Mouse Efficacy Studies. In vivo studies were carried out as previously described, with minor modifications.7 Briefly: Control drug used was Miltefosine (30 mg/kg orally, twice daily for 5 days), vehicle used was 10% (v/v) dimethyl sulfoxide (DMSO), 40% polyethylene glycol 400, and 50% deionized water (10 Ml/kg orally, twice daily for 5 days) and mice were treated with test compound intraperitoneally (50 mg/kg twice daily for 5 days).

[12] = in vivo; type: in vivo; conditions: mouse
Protocol: Intramacrophage L. donovani Assay. This assay was conducted as previously described, except for compound exposure time, which was 96 h instead of 72 h.4 […]
All regulated procedures on living animals were carried out under the authority of a project license issued by the Home Office under the Animals (Scientific Procedures) Act 1986, as amended in 2012 (and in compliance with EU Directive EU/2010/63). Infected animals had access to food and water ad libitum and were housed under a 12 hour light/dark photoperiod. Animals used in these experiments were female NMRI and Balb/c mice (Harlan, UK).
Test compound DDD01008714 was dosed orally (P.O.) at 10 mg free base/kg (dose volume 10 mL/kg; dose vehicle: 10% (vol/vol) dimethyl sulfoxide (DMSO), 40% polyethylene glycol 400 (PEG400) and 50% deionized water) to female NMRI mice (n = 3) or intravenously (I.V.) at 3 mg free base/kg (dose volume 5 mL/kg; dose vehicle: 10% (vol/vol) dimethyl sulfoxide (DMSO) and 90% Saline) to female Balb/c mice (n = 3). Blood samples (10 μL) where taken from the tail vein of […]
samples for I.V. leg only) and mixed with two volumes of deionized water (20 μL). After suitable sample preparation, the concentration of test compound in the whole blood from treated mice was determined by UPLC-MS/MS using a Quattro Premier XE (Waters, USA). Pharmacokinetic parameters were derived from the mean blood concentration time curve using PK solutions software v 2.0 (Summit Research Services, USA). […]
of concentration vs. Time for 4, dosed at 10 mg/kg. Extrapolated to 50 mg/kg assuming a linear dose increase, showing potential coverage above EC90 for approximately 6 hours […]
(1 picture or pasted object on this page, not shown here)

[13] = parameters: method as in PMID 30962368; conditions: after 3 h; cited from earlier work; remark: listed apart in the source
[14] = test system: L. donovani amastigotes; test: INMAC assay: intramacrophage L. donovani in differentiated THP-1 cells; type: cell-based, Leishmania donovani; conditions: for EC90: INMAC; for LdInMac pIC50: supplementary csv
Procedure, shortened: as §1

[15] = supplementary csv; flagged as reported previously in Table 5; cited from earlier work
[16] = test system: THP-1 cells; test: THP-1 host cell read-out of the INMAC assay; type: cell-based
Procedure, shortened: as §1

[17] = Mouse liver microsomal intrinsic clearance; type: in vitro ADME; conditions: for Mouse CLi: Table 6, mouse liver microsomes; for Cli (mouse, ml/min/g): supplementary csv
[18] = FaSSIF (fasted state simulated intestinal fluid) solubility; type: physicochemical
[19] = Table 6, kinetic, CLND, read-out: Aq. solubility
[20] = female, Balb/c, in vivo, iv PK 3 mg/kg
[21] = female, NMRI, in vivo, po PK 10 mg/kg
[22] = Table 6, at least three replicates, SD ≤0.4

For O=C(Nc1ccc(F)c(-c2ccn3c(N4CCOCC4)cnc3n2)c1)N1CCCC1 [Compound 1], the “INMAC pEC50” value ([1]; Table 5) is given as 5.8, the “LdInMac pIC50” value [1] is given as 5.8 and the “pIC50 PI3Kγ” value [2] is given as less than 4.5. The “pIC50 LCK” value [3] was less than 4.5, the “Mouse CLi” value ([4]; Table 6, mouse liver microsomes) was 0.8^e mL/min/g and the predicted safety margin [5] was “at least 37 fold”. For the same compound, the “THP-1 pEC50” value ([6]; Table 5) was less than 4.3, the “THP1 pIC50” value [6] was less than 4.3 and the “pIC50 AuroraB” value [7] was less than 4.5. The solubility [8, 19] was 420 µM (≈ 172 µg/mL) and the Ames assay result [9] was “negative”.

For O=C(Nc1cccc(-c2nc3ncccc3o2)c1)c1ccco1 [Compound 3], the “INMAC pEC50” value ([1]; Table 3) is given as 5.2 and the “THP-1 pEC50” value ([6]; Table 3) is given as less than 4.3.

In the case of O=C(Nc1ccc(F)c(-c2cn3cc(N4CCOCC4)cnc3n2)c1)N1CCCC1 [Compound 4], the “human plasma stability, compound remaining” value [10] is given as 100%, the “% reduction in parasitemia” value [11] is given as 98% and the “INMAC pEC50” value ([1]; Table 1, five independent replicates, SD ≤0.2) is given as 6.2. For the same compound, the “INMAC pEC50” value ([1]; Table 2) was 6.2^e, the “LdInMac pIC50” value [1] was 6.2 and the AUC at 24 h [12, 20] was 2250 ng·h/mL. For the same compound, the half-life at 24 h [12, 20] was 30 min, the bioavailability at 24 h ([12]; female, NMRI, in vivo, po PK 10 mg/kg vs iv 3 mg/kg) was 57% and the AUC at 24 h [12, 21] was 4300 ng·h/mL. The Cmax at 24 h [12, 21] was 1300 ng/mL, the Tmax at 24 h [12, 21] was 30 min and the Clb ([12]; iv PK 3 mg/kg) was 22 mL/min/kg. The Vdss ([12]; listed under po PK (10 mg/kg)) was 0.8 L/kg, the “time with blood levels above EC90” value ([12]; oral dose of 10 mg/kg) was “around 2 h” and the CLi ([4]; Table 1, mouse liver microsomes) was less than 0.5 mL/min/g. The “Mouse CLi” value ([4]; Table 2, mouse liver microsomes) was <0.5^e mL/min/g, the “Cli (mouse, ml/min/g)” value ([4]; supplementary csv, mouse, flagged as reported previously in the main tables) was less than 0.5 mL/min/g and the “mouse plasma stability, compound remaining” value [13] was 100%. For the same compound, the EC90 ([14]; Leishmania donovani, THP-1, pEC90 5.7 expressed as concentration, read-out: EC90) was 0.78 µg/mL, the EC90 ([14]; Leishmania donovani, THP-1, read-out: pEC90 (converted)) was 2 µM and the “THP-1 cells pEC50” value ([6]; Table 1) was less than 4.3. The “THP1 pIC50” value [6] was less than 4.3, the solubility ([8]; Table 1, kinetic solubility, CLND, read-out: aqueous solubility) was 150 µM (≈ 61.6 µg/mL) and the solubility ([8]; Table 2, kinetic, CLND, read-out: Aq. solubility) was 150 µM (≈ 61.6 µg/mL). The Ames assay result [9] was “positive”.

In the case of O=C(Nc1ccc(F)c(-c2nc3cc(N4CCOCC4)cnn3n2)c1)N1CCCC1 [Compound 24, N-(4-Fluoro-3-(7-morpholino-[1,2,4]triazolo[1,5-b]pyridazin-2-yl)phenyl)pyrrolidine-1-carboxamide], the “INMAC pEC50” value ([1]; Table 5) is given as 6.1, the “LdInMac pIC50” value [1] is given as 6.1 and the “Aqueous Solubility” value [15] is given as 420 µM. The “THP-1 pEC50” value ([6]; Table 5) was less than 4.3 and the “THP1 pIC50” value [6] was less than 4.3.

For CC(C)Nc1cnc2nc(-c3cc(NC(=O)N4CCCC4)ccc3F)ccn12 [Compound 45, N-(4-Fluoro-3-(3-(isopropylamino)imidazo[1,2-a]pyrimidin-7-yl)phenyl)pyrrolidine-1-carboxamide], the EC50 ([16]; Homo sapiens, THP-1, Table 6, read-out: THP-1 pEC50 (converted)) was 50.1 µM, the IC50 ([16]; Homo sapiens, THP-1, supplementary csv, read-out: THP1 pIC50 (converted)) was 50.1 µM and the “Mouse CLi” value [17] was 5.2 mL/min/g. For the same compound, the “Cli (mouse, ml/min/g)” value [17] was 5.2 mL/min/g, the EC50 ([14]; Leishmania donovani, THP-1, Table 6, at least three replicates, SD ≤0.4, read-out: INMAC pEC50 (converted)) was 2.51 µM and the solubility at 4 h ([18]; pH 6.5, Table 6) was 13 µM (≈ 4.97 µg/mL). The solubility [8, 19] was 124 µM (≈ 47.4 µg/mL) and the solubility ([8]; supplementary csv, read-out: Aqueous Solubility) was 120 µM (≈ 45.9 µg/mL).

For “(R)-N-(4-Fluoro-3-(3-(3-methylmorpholino)imidazo[1,2-a]pyrimidin-7-yl)phenyl)pyrrolidine-1-carboxamide [Compound 39]”, the “THP-1 pEC50” value ([16]; Table 6) was 4.3, the “THP1 pIC50” value ([16]; supplementary csv) was 4.3 and the “Mouse CLi” value [17] was 2.7 mL/min/g. The “Cli (mouse, ml/min/g)” value [17] was 2.7 mL/min/g, the “INMAC pEC50” value [14, 22] was 5.9 and the “LdInMac pIC50” value [14] was 5.9. The FaSSIF solubility ([18]; Table 6) was 1,322 μM, the “FaSSIF solubility” value ([18]; supplementary csv) was greater than 1000 µM and the solubility [8, 19] was no less than 362 µM. The “Aqueous Solubility” value ([8]; supplementary csv) was no less than 360 µM.

With “(S)-N-(4-Fluoro-3-(3-(3-methylmorpholino)imidazo[1,2-a]pyrimidin-7-yl)phenyl)pyrrolidine-1-carboxamide [Compound 40]” the “THP-1 pEC50” value ([16]; Table 6) was 4.3, the “THP1 pIC50” value ([16]; supplementary csv) was 4.3 and the “Mouse CLi” value [17] was 1.8 mL/min/g. The “Cli (mouse, ml/min/g)” value [17] was 1.8 mL/min/g, the “INMAC pEC50” value [14, 22] was 6.0 and the “LdInMac pIC50” value [14] was 6. The FaSSIF solubility ([18]; Table 6) was 1,578 μM, the “FaSSIF solubility” value ([18]; supplementary csv) was greater than 1000 µM and the solubility [8, 19] was 345 µM. For the same compound, the “Aqueous Solubility” value ([8]; supplementary csv) was 350 µM.

Source: PMC8154566, “Scaffold-Hopping Strategy on a Series of Proteasome Inhibitors Led to a Preclinical Candidate for the Treatment of Visceral Leishmaniasis” (Journal of Medicinal Chemistry, 2021)
